Results from article PMC9090415, “Discovery of small molecule inhibitors of Plasmodium falciparum apicoplast DNA polymerase” (Journal of Enzyme Inhibition and Medicinal Chemistry, 2022).
pIC50: −log10 of the molar value.

Target: P. falciparum apicoplast DNA polymerase (Pf-apPOL) (Plasmodium falciparum, UniProt Q8ILY1)
Test: Fluorescence-based high-throughput DNA polymerase assay (molecular beacon), primary screen and dose-response
Assay type: biochemical
Settings: for DNA Pol: unit not given, 90 min, 10 µM; for pIC50: supplemental file 2, sheet IC50 nontoxic compounds, Pf-apPOL
Summary of the method: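 Single-point screening used 10 µM compound with 20 nM polymerase, 20 nM hairpin substrate and 6 µM dNTPs for 90 min at 25 °C. Confirmatory titrations (2.5–80 µM) followed fluorescence at three times, and IC50 was derived from a fit including a cooperativity term n.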

[1] = DRC-2, 180', concentration 5 (unit not given)

P. falciparum apicoplast DNA polymerase (Pf-apPOL), sequence (Q8ILY1 entry or part of it): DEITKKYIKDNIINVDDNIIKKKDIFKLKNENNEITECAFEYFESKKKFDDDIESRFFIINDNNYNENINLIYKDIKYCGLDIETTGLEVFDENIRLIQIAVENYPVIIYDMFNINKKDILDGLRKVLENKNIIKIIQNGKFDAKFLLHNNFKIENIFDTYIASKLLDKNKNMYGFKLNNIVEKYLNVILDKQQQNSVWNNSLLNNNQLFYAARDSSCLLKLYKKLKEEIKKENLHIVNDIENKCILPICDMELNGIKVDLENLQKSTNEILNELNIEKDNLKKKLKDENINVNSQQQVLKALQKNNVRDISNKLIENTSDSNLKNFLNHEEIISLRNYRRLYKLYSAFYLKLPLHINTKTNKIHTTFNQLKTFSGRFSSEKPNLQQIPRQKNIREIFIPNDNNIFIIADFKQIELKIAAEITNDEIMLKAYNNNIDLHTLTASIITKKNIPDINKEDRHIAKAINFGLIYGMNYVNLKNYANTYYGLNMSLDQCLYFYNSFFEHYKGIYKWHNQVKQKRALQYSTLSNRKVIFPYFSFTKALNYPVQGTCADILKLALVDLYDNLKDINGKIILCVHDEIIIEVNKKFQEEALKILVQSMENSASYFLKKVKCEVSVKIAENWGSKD

Cc1ccc(C)c(CSc2nc(C3CCCCC3)c(C#N)c(=O)[nH]2)c1 [Molecule 6, N#Cc1c(=O)[nH]c(nc1C1CCCCC1)SCc1cc(C)ccc1C]
DNA Pol ('DNA Pol' of the 186 hits list (primary screen result)): 98
% inhibition Apo pol 10' (DRC-1, concentration 2.5): 19.6577%
% inhibition Apo pol 10' (DRC-1, concentration 5): 38.2184%
% inhibition Apo pol 10' (DRC-1, concentration 10): 71.2419%
% inhibition Apo pol 10' (DRC-1, concentration 20): 88.8023%
% inhibition Apo pol 10' (DRC-1, concentration 40): 92.9931%
% inhibition Apo pol 10' (DRC-1, concentration 80): 97.5171%
% inhibition Apol 90' (DRC-1, 90', concentration 2.5): 7.563%
% inhibition Apol 90' (DRC-1, 90', concentration 5): 29.5473%
% inhibition Apol 90' (DRC-1, 90', concentration 10): 66.2339%
% inhibition Apol 90' (DRC-1, 90', concentration 20): 83.4926%
% inhibition Apol 90' (DRC-1, 90', concentration 40): 89.6774%
% inhibition Apol 90' (DRC-1, 90', concentration 80): 97.7776%
% inhibition apPOL 180' (DRC-1, 180', concentration 2.5): -0.2009%
% inhibition apPOL 180' (DRC-1, 180', concentration 5): 17.3135%
% inhibition apPOL 180' (DRC-1, 180', concentration 10): 54.7895%
% inhibition apPOL 180' (DRC-1, 180', concentration 20): 77.2836%
% inhibition apPOL 180' (DRC-1, 180', concentration 40): 85.5131%
% inhibition apPOL 180' (DRC-1, 180', concentration 80): 97.5591%
% inhibition Apol 40' (DRC-2, 40', concentration 2.5 (unit not given)): 13%
% inhibition ApPOL 90' (DRC-2, 90', concentration 40 (unit not given)): 80%
% inhibition apPOL 180' [1]: 10%
% inhibition apPOL 180' (DRC-2, 180', concentration 40 (unit not given)): 80%
% inhibition apPOL 180' (DRC-2, 180', concentration 80 (unit not given)): 80%
% inhibition Apo pol 5' (DRC-2, concentration 2.5): 9%
% inhibition Apo pol 5' (DRC-2, concentration 5): 13%
% inhibition Apo pol 5' (DRC-2, concentration 5 (unit not given)): 13%
% inhibition Apo pol 5' (DRC-2, concentration 20): 59%
% inhibition Apo pol 5' (DRC-2, concentration 40): 63%
% inhibition Apo pol 5' (DRC-2, concentration 80): 61%
% inhibition Apol 40' (DRC-2, 40', concentration 2.5): 13%
% inhibition Apol 40' (DRC-2, 40', concentration 5): 18%
% inhibition Apol 40' (DRC-2, 40', concentration 10): 51%
% inhibition Apol 40' (DRC-2, 40', concentration 20): 69%
% inhibition Apol 40' (DRC-2, 40', concentration 40): 77%
% inhibition Apol 40' (DRC-2, 40', concentration 80): 75%
% inhibition ApPOL 90' (DRC-2, 90', concentration 2.5): 10%
% inhibition ApPOL 90' (DRC-2, 90', concentration 2.5 (unit not given)): 10%
% inhibition ApPOL 90' (DRC-2, 90', concentration 5): 16%
% inhibition ApPOL 90' (DRC-2, 90', concentration 10): 50%
% inhibition ApPOL 90' (DRC-2, 90', concentration 20): 71%
% inhibition ApPOL 90' (DRC-2, 90', concentration 40): 80%
% inhibition ApPOL 90' (DRC-2, 90', concentration 80): 78%
% inhibition apPOL 180' (DRC-2, 180', concentration 2.5): 5.53%
% inhibition apPOL 180' (DRC-2, 180', concentration 5): 10%
% inhibition apPOL 180' (DRC-2, 180', concentration 20): 67%
% inhibition apPOL 180' (DRC-2, 180', concentration 40): 80%
% inhibition apPOL 180' (DRC-2, 180', concentration 80): 80%
DNA Pol (primary screen value of the library well): 98

CCCCCCCCCCCCCCCCCC(=O)CCN(C)C [KU0271928]
% inhibition Apo pol 10' (DRC-1, concentration 2.5): 4.376%
% inhibition Apo pol 10' (DRC-1, concentration 5): 8.002%
% inhibition Apo pol 10' (DRC-1, concentration 10): 14.7164%
% inhibition Apo pol 10' (DRC-1, concentration 20): 22.8957%
% inhibition Apo pol 10' (DRC-1, concentration 40): 29.808%
% inhibition Apo pol 10' (DRC-1, concentration 80): 46.1524%
% inhibition Apol 90' (DRC-1, 90', concentration 2.5): 3.047%
% inhibition Apol 90' (DRC-1, 90', concentration 5): 4.9355%
% inhibition Apol 90' (DRC-1, 90', concentration 10): 15.0466%
% inhibition Apol 90' (DRC-1, 90', concentration 20): 24.954%
% inhibition Apol 90' (DRC-1, 90', concentration 40): 42.2957%
% inhibition Apol 90' (DRC-1, 90', concentration 80): 71.469%
% inhibition apPOL 180' (DRC-1, 180', concentration 2.5): 2.105%
% inhibition apPOL 180' (DRC-1, 180', concentration 5): 0.02519%
% inhibition apPOL 180' (DRC-1, 180', concentration 10): 10.3787%
% inhibition apPOL 180' (DRC-1, 180', concentration 20): 23.1469%
% inhibition apPOL 180' (DRC-1, 180', concentration 40): 44.4373%
% inhibition apPOL 180' (DRC-1, 180', concentration 80): 80.1406%
% inhibition Apol 40' (DRC-2, 40', concentration 5 (unit not given)): 4%
% inhibition Apol 40' (DRC-2, 40', concentration 20 (unit not given)): 13%
% inhibition apPOL 180' [1]: 4%
% inhibition apPOL 180' (DRC-2, 180', concentration 20 (unit not given)): 13%
% inhibition Apo pol 5' (DRC-2, concentration 2.5): 0.736%
% inhibition Apo pol 5' (DRC-2, concentration 5): 1.37%
% inhibition Apo pol 5' (DRC-2, concentration 10): 2.68%
% inhibition Apo pol 5' (DRC-2, concentration 20): 5.52%
% inhibition Apo pol 5' (DRC-2, concentration 40): 18%
% inhibition Apo pol 5' (DRC-2, concentration 80): 37%
% inhibition Apol 40' (DRC-2, 40', concentration 2.5): 2.22%
% inhibition Apol 40' (DRC-2, 40', concentration 5): 4%
% inhibition Apol 40' (DRC-2, 40', concentration 10): 4.59%
% inhibition Apol 40' (DRC-2, 40', concentration 20): 13%
% inhibition Apol 40' (DRC-2, 40', concentration 40): 28%
% inhibition Apol 40' (DRC-2, 40', concentration 80): 61%
% inhibition ApPOL 90' (DRC-2, 90', concentration 2.5): 1.86%
% inhibition ApPOL 90' (DRC-2, 90', concentration 5): 3.32%
% inhibition ApPOL 90' (DRC-2, 90', concentration 10): 2.69%
% inhibition ApPOL 90' (DRC-2, 90', concentration 20): 12%
% inhibition ApPOL 90' (DRC-2, 90', concentration 40): 30%
% inhibition ApPOL 90' (DRC-2, 90', concentration 80): 67%
% inhibition apPOL 180' (DRC-2, 180', concentration 2.5): 1.53%
% inhibition apPOL 180' (DRC-2, 180', concentration 5): 4%
% inhibition apPOL 180' (DRC-2, 180', concentration 10): 2.45%
% inhibition apPOL 180' (DRC-2, 180', concentration 20): 13%
% inhibition apPOL 180' (DRC-2, 180', concentration 40): 31%
% inhibition apPOL 180' (DRC-2, 180', concentration 80): 73%
DNA Pol (primary screen value of the 186 hits): 46
DNA Pol (primary screen value, head "DNA Pol"): 46

O=C1CSC2=NC3=C(CCc4ccccc43)C(c3cccs3)N12 (stereo not drawn) [Molecule 59]
pIC50: 4.83

O=c1cc(CN2CCCCC2)c2cc3c(cc2o1)OCO3 [Molecule 56]
pIC50: 4.42
